Measurements taken from patent publication US7888341B2, “Combination of glivec (STI571) with a cyclin-dependent kinase inhibitor, especially flavopiridol, in the treatment of cancer” (The United States of America as represented by the …, priority 2002, dated 2011).
Counter-ions that a name gives are not always drawn.

Columns and labels:
[1] = test system: K562 human leukemia cells; test: Apoptosis in K562 cells, morphologic assessment of Wright-Giemsa-stained slides; assay type: cell-based
Description: (§1) They are cultured in drug-free medium prior to all experimental procedures.
Assessment of apoptosis: Following drug exposures, cytocentrifuge preparations are stained with Wright-Giemsa and viewed by light microscopy to evaluate the extent of apoptosis as described in Wang Z. et al., 1999 Cancer Res. 59, 1259-67.
Values represent the means for three separate experiments performed in triplicate±SD (standard deviation).
Values represent the means for three separate experiments performed in triplicate±S.D (standard deviation).
The Combination Index (CI) is determined in relation to the fraction of cells affected using Median Dose Effect analysis. Results are representative of three separate experiments.

[2] = test system: K562R cells (drug-resistant K562, high Bcr/Abl protein); test: Apoptosis in drug-resistant K562R cells, morphologic assessment; assay type: cell-based, human
Description: as §1
Values represent the means for three separate experiments performed in triplicate±S.D.

## CN1CC[C@H](c2c(O)cc(O)c3c(=O)cc(-c4ccccc4Cl)oc23)[C@H](O)C1 [FP, 4H-1-benzopyran-4-one,2-(2-chlorophenyl)-5,7-dihydroxy-8-(3-hydroxy-1-methyl-4-piperidinyl)-,hydrochloride, (−)-cis-]
[1]; K562, 150 nM FP by itself
  cell death: < 5%
[1]; K562, 24 h, FP 150 nM (time course)
  percentage of apoptotic cells, mean: 1.40%
[1]; K562, 48 h, FP 50 nM without SALT I
  percentage of apoptotic cells, mean: 1.9%
[1]; K562, 48 h, FP 100 nM without SALT I
  percentage of apoptotic cells, mean: 2.4%
[1]; K562, 48 h, FP 150 nM (time course)
  percentage of apoptotic cells, mean: 3.33%
[1]; K562, 48 h, FP 150 nM without SALT I
  percentage of apoptotic cells, mean: 3.2%
[1]; K562, 48 h, FP 200 nM without SALT I
  percentage of apoptotic cells, mean: 6.1%
[1]; K562, 48 h, FP 300 nM without SALT I
  percentage of apoptotic cells, mean: 18.5%
[1]; K562, 48 h, SALT I 0 nM + FP 150 nM (FP alone)
  percentage of apoptotic cells, mean: 0.9%
[2]; 48-hr exposure, 150 nM FP
  toxicity: non-toxic
[2]; 48 h, FP 200 nM
  percentage of apoptotic cells, mean: 1.77%

## Cc1ccc(NC(=O)c2ccc(CN3CCN(C)CC3)cc2)cc1Nc1nccc(-c2cccnc2)n1 [SALT I, 4-[(4-methyl-1-piperazin-1-ylmethyl)-N-[4-methyl-3-[[4-(3-pyridinyl)-2-pyrimidinyl]amino]phenyl]benzamide methanesulfonate]
[1]; K562, 24 h, SALT I 200 nM (time course)
  percentage of apoptotic cells, mean: 2.57%
[1]; K562, 48 h, FP 0 nM + SALT I 200 nM (SALT I alone)
  percentage of apoptotic cells, mean: 5.7%
[1]; K562, 48 h, SALT I 50 nM without FP
  percentage of apoptotic cells, mean: 1.9%
[1]; K562, 48 h, SALT I 100 nM without FP
  percentage of apoptotic cells, mean: 1.8%
[1]; K562, 48 h, SALT I 150 nM without FP
  percentage of apoptotic cells, mean: 3.0%
[1]; K562, 48 h, SALT I 200 nM (time course)
  percentage of apoptotic cells, mean: 5.97%
[1]; K562, 48 h, SALT I 200 nM without FP
  percentage of apoptotic cells, mean: 4.6%
[1]; K562, 48 h, SALT I 250 nM without FP
  percentage of apoptotic cells, mean: 8.9%
[1]; K562, 48 h, SALT I 300 nM without FP
  percentage of apoptotic cells, mean: 20.3%
[1]; K562, 48 h, SALT I 400 nM without FP
  percentage of apoptotic cells, mean: 30.8%
[1]; K562, 48 h, SALT I 500 nM without FP
  percentage of apoptotic cells, mean: 53.8%
[1]; K562, 48 hr, SALT I concentrations <300 nM
  induction of apoptosis: weakly induces apoptosis
[1]; parental K562S cells, 1.5 μM SALT I, 48 hr
  apoptosis: > 95%
